Source: US11111500B2, “Mutated protoporphyrinogen IX oxidase (PPX) genes” (CIBUS US LLC, priority 2010, dated 2021)

Legend:
[1] = tested on: potato protoplasts (protoplast-derived cells); experiment: Sulfentrazone kill curve with cell suspension and shoot tip-derived protoplasts; format: cell-based; settings: for Microcallus formation: exposed one month; for # Of calli in 3 beads, # / # Of calli in 3 beads, %: Non treated protoplast + PEG; for # Of calli in 3 beads, # / # Of calli in 3 beads, % / # of calli in beads, # / # of calli in beads, %: one month; for # Of calli in 3 beads, % / # of calli in beads, %: relative to 0.0 μM; for # of calli in beads, # / # of calli in beads, %: Stop-GFP + Correcting GRON protoplasts
Protocol: Herbicide selection experiments were performed to determine the concentration of herbicide necessary to kill protoplast derived microcalli in a defined treatment period. […] The herbicide was suspended in DMSO, with the final concentration of DMSO in the herbicide treatments being 1%. Development of cells was evaluated under the microscope once a week. […]
Therefore, new kill curves were initiated with lower concentrations of 0, 0.5, 0.6, 0.7 and 0.8 μM of sulfentrazone, shown in Table 1.3.
About 200 shoot tips of 2-8 week-old in vitro shoots that have been cultured under a regular day/night regime, or, preferably were kept for two days before protoplast isolation in the dark, shoots may be cut into small pieces with a scalpel in a petri dish with sterile water. After all tips have been cut, the water is replaced with protoplast culture medium, preferably BN (B5 Salts and Vitamins (Phytotechnology Laboratories), glucose 20 g/L, mannitol 70 g/L, alpha naphthalene acetic acid 5 mg/L, additional CaCl2×2H2O 600 mg/L, casein hydrolysate 250 mg/L, cystcine-HCL 10 mg/L, polyvinylpyrrolidone (MW 10,000) 5 g/L. After approximately 1-2 h, the protoplast culture medium is replaced with enzyme solution, for example consisting of medium BN, in which 0.5% (w/v) Cellulase YC and 0.75% (w/v) Maccrozyme R10 (both from Karlan Research Products, Cottonwood, Ariz.), 1 g/L bovine serum albumin, and 1 g/L 2-morpholinoethanesulfonic acid are dissolved. The ratio of the number of shoot tips over the volume of enzyme solution can be between 10 and 16, preferably 13. The dish with shoot tip pieces in enzyme solution is incubated for at 25° C.-30° C., preferably 28° C., in darkness on a shaker set to about 50 rpm. After overnight incubation the protoplast suspension is purified using an iodixanol density gradient (adapted from Optiprep Application Sheet C18; Purification of Intact Plant Protoplasts; Axis-Shield USA, 10 Commerce Way, Norton, Mass. 02776). After the density gradient centrifugation, the band with purified protoplasts is removed together with about 5 mL W5 medium (Frigerio et al., 1998). The protoplast density and yield are determined with a hemocytometer. The protoplasts density is adjusted to 1×10^6/mL in BN medium containing 2 mg/L 2,6-dichlorobenzonitrile (cellulose synthase inhibitor), and the protoplasts are cultured in darkness at 30° C. for about 16 h.
1. Fast growing cell suspensions are used, preferably three days after their last subculture. 1.5 mL settled cell volume is transferred to about 15 ml BN medium, which after 2 h is replaced with enzyme solution. 2. The protoplast purification is followed immediately by the GRON/PEG treatment.
The protoplast suspension is mixed with an equal volume of W5 medium, transferred to a 50 mL centrifuge tube, and centrifuged for 10 min at the lowest setting of a clinical centrifuge (about 50×g). The supernatant is removed and replaced with TM medium (Klaus, S. Markerfreie transplastome Tabakpflanzen (Marker-free transplastomic tobacco plants). PhD Dissertation, 2002, Ludwig-Maximilians-Universitát Múnchen, 109 pp), adjusting the protoplast density to 5×10^6/mL. Aliquots of 100 μL containing 5×10^5 protoplasts each are distributed into 12 mL round bottom centrifuge tubes. GRONs (such as those shown in Table 14) targeted at one or more mutations in one or both of the mitochondrial and plastidal PPX genes are then introduced into the protoplasts using a PEG treatment. To introduce the GRONs into the protoplasts, 12.5 μg GRON dissolved in 25 μL purified water and 125 μL of a polyethylene glycol solution (5 g PEG MW 1500, 638 mg mannitol, 207 mg CaNO3×4H2O and 8.75 mL purified water; pH adjusted to about 9.0) is added. After a 10-30 min incubation on ice, the protoplast-PEG suspension is washed with W5 medium and resuspended in medium BN. The suspension is kept overnight in darkness at room temperature.
One day after the GRON introduction, protoplasts are embedded in calcium alginate. […]

[2] = tested on: leaf disc explants of in vitro grown potato plants; experiment: Leaf disk kill curve (callus formation in leaf disc explants); format: cell-based
Protocol: Aimed at establish the concentration of sulfentrazone that will inhibit callus formation in leaf disc explants, leaf discs were punched with a sterile hole punch from 5 weeks old in vitro grown potato plants. The leaf discs were cultured in petri dishes containing solid Haberlach culture medium containing various concentrations of Sulfentrazone in a final concentration of 1% DMSO. Six leaf discs cultured at each herbicide concentration. Plates were sealed with micropore tape and incubated at room temperature (approximately 23° C.). In an initial experiment, 7.8 μM sulfentrazone, the lowest concentration tested in that experiment, was sufficient to stop callus formations and bleach all leaf discs within 20 days. […] Similar leaf disc kill curve experiments were performed using saflufenacil where 0.5 μM of this herbicide was sufficient to inhibit callus formation in almost all leaf discs after 20 days.

## Cc1nn(-c2cc(NS(C)(=O)=O)c(Cl)cc2Cl)c(=O)n1C(F)F [sulfentrazone]
[1]; 7.8 μM sulfentrazone
  Microcallus formation: No
[1]; 15.6 μM sulfentrazone
  Microcallus formation: No
[1]; 31.25 μM sulfentrazone
  Microcallus formation: No
[1]; 62.5 μM sulfentrazone
  Microcallus formation: No
[1]; 0.5 μM
  # Of calli in 3 beads, #: 45
  # Of calli in 3 beads, %: 30%
  # of calli in beads, #: 38
  # of calli in beads, %: 30.2%
[1]; 0.6 μM
  # Of calli in 3 beads, #: 8
  # Of calli in 3 beads, %: 6.9%
  # of calli in beads, #: 12
  # of calli in beads, %: 9.6%
[1]; 0.7 μM
  # Of calli in 3 beads, #: 2
  # Of calli in 3 beads, %: 1.7%
  # of calli in beads, #: 7
  # of calli in beads, %: 5.6%
[1]; 0.8 μM
  # Of calli in 3 beads, #: 0.0
  # Of calli in 3 beads, %: 0.0%
  # of calli in beads, #: 0.0
  # of calli in beads, %: 0.0%
[1]; shoot tip-derived protoplasts and cell suspension
  concentration sufficient to kill all protoplast-derived cells: 7.8 µM
[2]; initial experiment, lowest concentration tested, 1% DMSO
  concentration sufficient to stop callus formations and bleach all leaf discs within 20 days: 7.8 µM
[2]; leaf discs grown on 2.0 μM
  time after which callus initiated on the leaf veins of some leaf discs: 13 days
[2]; solid Haberlach culture medium, 1% DMSO
  concentration sufficient to inhibit callus formation in almost all leaf discs after 20 days: 3.0 µM
